In patent publication EP4656642A1, “ESTROGEN RECEPTOR PROTEOLYSIS TARGETING CHIMERA COMPOUND AND USE THEREOF” (GAN & LEE PHARM CO., LTD, priority 2023, dated 2024):

Legend:
Format in all cases: cell-based
ERα [1] = target: T1, ERα (Homo sapiens, UniProt P03372); test: Degradation of ERα in MCF-7 cells (immunoblotting, 4 h)
T1 sequence (P03372 1-595): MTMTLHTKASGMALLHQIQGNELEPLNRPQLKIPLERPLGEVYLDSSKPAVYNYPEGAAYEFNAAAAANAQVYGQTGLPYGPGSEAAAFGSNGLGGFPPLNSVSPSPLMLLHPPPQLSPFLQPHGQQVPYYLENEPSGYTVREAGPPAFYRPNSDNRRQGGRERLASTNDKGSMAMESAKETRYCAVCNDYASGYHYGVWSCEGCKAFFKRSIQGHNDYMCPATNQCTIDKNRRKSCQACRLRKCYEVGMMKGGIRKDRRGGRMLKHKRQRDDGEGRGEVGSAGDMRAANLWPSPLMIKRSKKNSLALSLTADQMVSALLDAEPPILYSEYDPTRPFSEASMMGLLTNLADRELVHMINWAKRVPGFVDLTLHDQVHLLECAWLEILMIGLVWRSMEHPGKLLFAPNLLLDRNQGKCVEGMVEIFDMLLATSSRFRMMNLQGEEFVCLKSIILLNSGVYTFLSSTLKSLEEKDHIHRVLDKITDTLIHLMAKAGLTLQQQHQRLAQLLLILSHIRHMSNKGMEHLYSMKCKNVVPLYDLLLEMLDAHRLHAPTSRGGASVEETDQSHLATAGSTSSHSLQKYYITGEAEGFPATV
Description: MCF-7 cells were inoculated into 6-well plates at a density of 3×10^5 cells/well and cultured at 37°C, 5% CO2 for 24h. After the cells were attached to the wall, 1µL of the compound solution in dimethyl sulfoxide (final concentration 0.15-1000nM) was added and continued to be cultured in incubator at 37°C with 5% CO2 for 4 h. After 4 h, the culture medium was discarded, and each well was washed once with pre-cooled 1×DPBS, and the cells were lysed with a mixture of 50 µL of RIPA lysis buffer (P0013B, Beyotime) and 1× protease inhibitor (P1005, Beyotime), and then centrifuged at 14,000 g for 30 min at 4°C after resting on ice for 20 min, and the supernatant was carefully collected to detect the protein level of ERα by protein immunoblotting (Immunoblotting).
Protein immunoblotting: The total protein concentration in the collected cell lysate supernatant was determined by BCA Protein Concentration Assay Kit (Enhanced) (P0009, Beyotime). According to the total protein concentration detected by BCA, the protein was adjusted to 1 µg/µL with RIPA lysis buffer and 5× SDS-PAGE protein loading buffer (MB01015, Genscript), and the protein was denatured by water bath at 95°C for 5 min, and then centrifuged after denaturation to enrich the condensate on the wall of the centrifuge tubes as a loading sample. […] At the end of electrophoresis, the proteins in the SDS-PAGE gels were transferred to a PVDF membrane at a constant voltage of 100 V for 60 min. After that, the PVDF membrane corresponding to ERα protein and internal reference protein was cut out and incubated in 1×QµickBlock blocking solution (P0252, Beyotime) for 30 min at room temperature on a shaker. […] Protein profiles were analyzed by Image Studio Lite analysis software for grayscale values. Grayscale correction values were calculated for each sample using the Formula: corrected grayscale value = grayscale value of the target protein /corresponding grayscale value of the internal reference. The degradation rate for the compounds was then calculated by comparing the corrected grayscale values of the compound group to the control group. Table 7 Degradation rate (%) of ERα by the PROTAC compounds of the present disclosure and positive control sample in MCF-7 cells

MCF-7 cells = test: Inhibition of cell proliferation of MCF-7 cells (CCK-8, 9 days); settings: treated for 9 days, CCK-8 kit (Table 6)
Description: Test Example 4 Inhibitory effect of the PROTAC compounds disclosed in the present disclosure on cell proliferation of MCF-7 cells
The complete medium required for MCF-7 cells (source ATCC) was DMEM (gibco, Product number :11995-065) basal medium containing 10% fetal bovine serum. MCF-7 cells were inoculated in 96-well plates at a density of 800 cells/well, and different concentrations of the PROTAC compounds 1-55 provided in the embodiments of the present disclosure and a positive control sample ARV-471 (source: Innochem) were prepared to treat cells, and cells were treated at 37°C in a cell culture incubator with 5% CO2 for 9 days. Cell viability was detected using a CCK -8 kit (Beyotime , Product number: C0040) according to the manufacturer's instruction. […] Table 5 IC50 values for inhibition of the proliferation of MCF-7 cells by the PROTAC compounds of the present disclosure and positive control sample

ERα [2] = target: T1, ERα; test: Degradation of ERα in T-47D cells (immunoblotting, 4 h); set-up: host or cells: T-47D
Description: T-47D cells were inoculated into 6-well plates at a density of 3×10^5 cells/well and cultured at 37°C, 5% CO2 for 24 h. After the cells were attached to the wall, 1µL of the compound solution in dimethyl sulfoxide (final concentration 0.15-1000 nM) was added and continued to be cultured in the incubator with 5% CO2 at 37°C for 4 h. After 4 h, the culture medium was discarded, and each well was washed once with pre-cooled 1×DPBS, and the cells were lysed with a mixture of 50 µL of RIPA lysis buffer (P0013B, Beyotime) and 1× protease inhibitor (P1005, Beyotime), and then centrifuged at 14,000 g for 30 min at 4°C after resting on ice for 20 min, and the supernatant was carefully collected to detect the protein level of ERα by protein immunoblotting (Immunoblotting).

| SMILES | Degradation rate (%) of ERα in MCF-7 cells (ERα [1]; 1nM compound) | Degradation rate (%) of ERα in MCF-7 cells (ERα [1]; 10nM compound) | IC50 (MCF-7 cells) | Degradation rate (%) of ERα in T-47D cells (ERα [2]; 1nM compound) | Degradation rate (%) of ERα in T-47D cells (ERα [2]; 10nM compound) |
| --- | --- | --- | --- | --- | --- |
| O=C1CCC(N2Cc3c(ccc4c3OCC43CCN(C(=O)C4CCC(CN5CCN(c6ccc(C7c8ccc(O)cc8CCC7c7ccccc7)cc6)CC5)CC4)CC3)C2=O)C(=O)N1 (stereo not shown) [G16] | 54% | 70% | 3.07 nM | 68% | 81% |
| O=C1CCC(N2Cc3cc4c(cc3C2=O)OC2(CC4)CN(C3CCC4(CC3)CCN(C3CCN(c5ccc([C@@H]6c7ccc(O)cc7CC[C@@H]6c6ccccc6)cc5)CC3)CC4)C2)C(=O)N1 (stereo partly shown) [K14] | -3% | 14% | 220 nM | 20% | 67% |
| O=C1CCC(N2Cc3c(ccc4c3OCC43CCN(C4CCN(C(=O)C5CCN(c6ccc(C7c8ccc(O)cc8CCC7c7ccccc7)cc6)CC5)C(C(=O)N5CCCC5)C4)CC3)C2=O)C(=O)N1 (stereo not shown) [K30] | 48% | 55% | 7.34 nM | 63% | 73% |
| O=C1CCC(N2Cc3c(ccc4c3OCC43CCN(C4CC5(CCN(C6CC7(CCN(c8ccc([C@@H]9c%10ccc(O)cc%10CC[C@@H]9c9ccccc9)cc8)CC7)C6)CC5)C4)CC3)C2=O)C(=O)N1 (stereo partly shown) [G8] | 29% | 73% | 749 nM | 45% | 81% |
| O=C1CCC(N2Cc3c(ccc4c3OCC43CCN(C4CC5CC4CN5C(=O)C4CCN(c5ccc([C@@H]6c7ccc(O)cc7CC[C@@H]6c6ccccc6)cc5)CC4)CC3)C2=O)C(=O)N1 (stereo partly shown) [D2] | 31% | 29% | 3620 nM | 61% | 68% |
| O=C1CCC(N2Cc3c(ccc4c3OCC43CCN(CC(=O)N4CCC(OC5CCN(c6ccc([C@@H]7c8ccc(O)cc8CC[C@@H]7c7ccccc7)cc6)CC5)CC4)CC3)C2=O)C(=O)N1 (stereo partly shown) [K46] | 54% | 85% | 85 nM | 73% | 90% |
| O=C1CCC(N2C(=O)c3ccc4c(c3C2=O)OCC42CCN(C3CCC4(CC3)CN(c3ccc([C@@H]5c6ccc(O)cc6CC[C@@H]5c5ccccc5)cc3)C4)CC2)C(=O)N1 (stereo partly shown) [L7] | 4% | -4% | 510 nM | 11% | 34% |
| O=C1CCC(N2Cc3c(ccc4c3OCC43CCN(C4CC5(CCC6(CCN(C7CCN(c8ccc([C@@H]9c%10ccc(O)cc%10CC[C@@H]9c9ccccc9)cc8)CC7)CC6)CC5)C4)CC3)C2=O)C(=O)N1 (stereo partly shown) [K15] | 16% | 42% | 196 nM | 18% | 35% |
| O=C1CCC(N2Cc3cc4c(cc3C2=O)OC2(CC4)CN(CC3CCN(C(=O)C4CCN(c5ccc([C@@H]6c7ccc(O)cc7CC[C@@H]6c6ccccc6)cc5)CC4)CC3)C2)C(=O)N1 (stereo partly shown) [K39] | 30% | 56% | 59 nM | 15% | 69% |
| O=C1CCC(N2Cc3c(ccc4c3OCC43CCN(CC(=O)N4CC5(C4)CN(c4ccc([C@@H]6c7ccc(O)cc7CC[C@@H]6c6ccccc6)cc4)C5)CC3)C2=O)C(=O)N1 (stereo partly shown) [B21] | 38% | 55% | 312 nM | 66% | 83% |
| CN(C(=O)CN1CC2(CCc3cc4c(cc3O2)CN(C2CCC(=O)NC2=O)C4=O)C1)C1CCC2(CC1)CN(c1ccc([C@@H]3c4ccc(O)cc4CC[C@@H]3c3ccccc3)cc1)C2 (stereo partly shown) [K45] | 21% | 59% | 75.2 nM | 37% | 74% |
| O=C1CCC(N2Cc3c(ccc4c3OCC43CCN(C(=O)CN4CCC5(CC4)CCN(c4ccc([C@@H]6c7ccc(O)cc7CC[C@@H]6c6ccccc6)cc4)C5)CC3)C2=O)C(=O)N1 (stereo partly shown) [A75] | 16% | 14% | 7.71 nM | 53% | 76% |
| CN(CC(=O)N1CCC2(CC1)COc1c2ccc2c1CN(C1CCC(=O)NC1=O)C2=O)C1CCC2(CC1)CN(c1ccc([C@@H]3c4ccc(O)cc4CC[C@@H]3c3ccccc3)cc1)C2 (stereo partly shown) [H52] | 53% | 61% | 5320 nM | 49% | 74% |
| O=C1CCC(N2Cc3c(ccc4c3OCC43CCN(C(=O)C4CCN(CC5(F)CCN(c6ccc([C@@H]7c8ccc(O)cc8CC[C@@H]7c7ccccc7)cc6)CC5)CC4)CC3)C2=O)C(=O)N1 (stereo partly shown) [E1] | 39% | 75% | 12.6 nM | 57% | 82% |
